The record followed here is patent USRE42890E1, “Furazanobenzimidazoles” (Basilea Pharmaceutica AG, priority 2003, dated 2011).

The structures appear in SMILES notation. Read-outs that look alike come from different tables or passages of the source.

One experiment relates to Jurkat. Kind of experiment: MTS proliferation assay, Jurkat. The format is cell-based, human. The following applies: 72 h incubation, read-out: MTS proliferation assay IC 50 Jurkat. In a few lines: (§1)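 Absorbance at 492 nm after 3 h with MTS reagent gave proliferation. This followed 72 h compound exposure (final 0.3, 1, 3, 10 μM) at 37 °C and 7.5% CO2. Cells had been plated 24 h earlier in complete RPMI-1640 with 5% or 10% FCS.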

Another experiment deals with Jily. Kind of experiment: MTS proliferation assay, Jily. Format: cell-based. The following applies: 72 h incubation, read-out: MTS proliferation assay IC 50 Jily. In a few lines:
(§2)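 Antiproliferative read-out by MTS (3 h, A492) after 72 h compound exposure at final 0.3–10 μM (four concentrations). Cells were plated 24 h earlier in RPMI-1640 containing 5% or 10% FCS, cultured at 37 °C with 7.5% CO2.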

A further experiment relates to HT1080. Kind of experiment: MTS proliferation assay, HT1080. The format is cell-based, human. The following applies: HT1080, 72 h incubation, read-out: MTS proliferation assay IC 50 HT1080. In a few lines:
as §1
For orientation: Tetrazolium dyes change colour on reduction, which living cells bring about.

For the next experiment, the system named is HeLa. The experiment is described as follows: MTS proliferation assay, HeLa. The settings on record: 72 h incubation, read-out: MTS proliferation assay IC 50 HeLa. Format: cell-based, human. In a few lines: as §1
The next experiment concerns MRC5. The experiment is described as follows: MTS proliferation assay, MRC5. The format is cell-based. The following applies: MRC5, 72 h incubation, read-out: MTS proliferation assay IC 50 MRC5. In outline:
as §2

Experiment [1] concerns adherent cells or suspension cells. Kind of experiment: Hoechst 33342 nuclear staining (fraction of apoptotic nuclei). The format is cell-based. Also on record: key: 0 relating to no activity; 1 relating to weak activity comprising less than 70% of the cells; score 2 relating to strong activity comprising more than 70% of the cells.

For the molecule `Nc1nonc1-c1nc2ccccc2n1COc1ccc(Cl)c(Cl)c1` [Example 92], the IC50 with Jurkat fell in the range of 10 to 100 nM; with Jily, 10 to 100 nM; with HT1080 it was 10 to 100 nM; in the experiment on HeLa, 10 to 100 nM; in the experiment on MRC5 it was 100 to 1000 nM. Also, the “Hoechst 33342 nuclear staining score” value is 0 in experiment [1] (H460, conc 0.01 μm); 2 (score 2 relating to strong activity comprising more than 70% of the cells) in experiment [1] (H460, conc 0.1 μm); 2 (score 2 relating to strong activity comprising more than 70% of the cells) in experiment [1] (H460, conc 1 μm); 0 in experiment [1] (HeLa, conc 0.01 μm); 2 (score 2 relating to strong activity comprising more than 70% of the cells) in experiment [1] (HeLa, conc 0.1 μm); 2 (score 2 relating to strong activity comprising more than 70% of the cells) in experiment [1] (HeLa, conc 1 μm). Besides, the “Hoechst 33342 nuclear staining score” value is 0 in experiment [1] (Jily, conc 0.01 μm); 2 (score 2 relating to strong activity comprising more than 70% of the cells) in experiment [1] (Jily, conc 0.1 μm); 2 (score 2 relating to strong activity comprising more than 70% of the cells) in experiment [1] (Jily, conc 1 μm); 0 in experiment [1] (Jurkat, conc 0.01 μm); 2 (score 2 relating to strong activity comprising more than 70% of the cells) in experiment [1] (Jurkat, conc 0.1 μm); 2 (score 2 relating to strong activity comprising more than 70% of the cells) in experiment [1] (Jurkat, conc 1 μm). Also, the “Hoechst 33342 nuclear staining score” value is reported as 0 in experiment [1] (MRC5, conc 0.01 μm); 2 (score 2 relating to strong activity comprising more than 70% of the cells) in experiment [1] (MRC5, conc 0.1 μm); 2 (score 2 relating to strong activity comprising more than 70% of the cells) in experiment [1] (MRC5, conc 1 μm); 0 in experiment [1] (PBLs, conc 0.01 μm); 0 in experiment [1] (PBLs, conc 0.1 μm); 0 in experiment [1] (PBLs, conc 1 μm).

For `Nc1nonc1-c1nc2ccccc2n1COc1ccc([N+](=O)[O-])cc1` [Example 98], the IC50 in the experiment with Jurkat is 100 to 1000 nM; in the experiment with Jily it was 100 to 1000 nM; in the experiment with HT1080, greater than 1000 nM; in the experiment with HeLa, greater than 1000 nM; with MRC5, greater than 1000 nM. For the same molecule, the “Hoechst 33342 nuclear staining score” value in experiment [1] (H460, conc 0.01 μm) came to 0; in experiment [1] (H460, conc 0.1 μm), 0; in experiment [1] (H460, conc 1 μm), 0; in experiment [1] (HeLa, conc 0.01 μm), 0; in experiment [1] (HeLa, conc 0.1 μm), 0; in experiment [1] (HeLa, conc 1 μm), 0. Further, the “Hoechst 33342 nuclear staining score” value is 0 in experiment [1] (Jily, conc 0.01 μm); 0 in experiment [1] (Jily, conc 0.1 μm); 2 (score 2 relating to strong activity comprising more than 70% of the cells) in experiment [1] (Jily, conc 1 μm); 0 in experiment [1] (Jurkat, conc 0.01 μm); 0 in experiment [1] (Jurkat, conc 0.1 μm); 2 (score 2 relating to strong activity comprising more than 70% of the cells) in experiment [1] (Jurkat, conc 1 μm). Further, the “Hoechst 33342 nuclear staining score” value turned out to be 0 in experiment [1] (MRC5, conc 0.01 μm); 0 in experiment [1] (MRC5, conc 0.1 μm); 0 in experiment [1] (MRC5, conc 1 μm); 0 in experiment [1] (PBLs, conc 0.01 μm); 0 in experiment [1] (PBLs, conc 0.1 μm); 0 in experiment [1] (PBLs, conc 1 μm).

`Nc1cc(C(=O)Cn2c(-c3nonc3N)nc3ccccc32)ccc1Cl` [Example 14, 4-[1-(3-Amino-4-chlorophenacyl)-1H-benzimidazol-2-yl]-furazan-3-ylamine]: the IC50 in the experiment with Jurkat (Homo sapiens) was 10 to 100 nM; in the experiment with Jily, 10 to 100 nM; in the experiment with HT1080 (Homo sapiens, HT-1080), 10 to 100 nM; in the experiment on HeLa (Homo sapiens), 10 to 100 nM; in the experiment with MRC5 (Homo sapiens), 10 to 100 nM. The “Hoechst 33342 nuclear staining score” value in experiment [1] (H460, conc 0.01 μm) is reported as 0; in experiment [1] (H460, conc 0.1 μm) it was 2 (score 2 relating to strong activity comprising more than 70% of the cells); in experiment [1] (H460, conc 1 μm), 2 (score 2 relating to strong activity comprising more than 70% of the cells); in experiment [1] (HeLa, conc 0.01 μm), 0; in experiment [1] (HeLa, conc 0.1 μm), 1 (1 relating to weak activity comprising less than 70% of the cells); in experiment [1] (HeLa, conc 1 μm), 2 (score 2 relating to strong activity comprising more than 70% of the cells). Further, the “Hoechst 33342 nuclear staining score” value in experiment [1] (Jily, conc 0.01 μm) is 0; in experiment [1] (Jily, conc 0.1 μm), 2 (score 2 relating to strong activity comprising more than 70% of the cells); in experiment [1] (Jily, conc 1 μm), 2 (score 2 relating to strong activity comprising more than 70% of the cells); in experiment [1] (Jurkat, conc 0.01 μm), 0; in experiment [1] (Jurkat, conc 0.1 μm), 2 (score 2 relating to strong activity comprising more than 70% of the cells); in experiment [1] (Jurkat, conc 1 μm), 2 (score 2 relating to strong activity comprising more than 70% of the cells). Also, the “Hoechst 33342 nuclear staining score” value in experiment [1] (MRC5, conc 0.01 μm) is recorded as 0; in experiment [1] (MRC5, conc 0.1 μm), 1 (1 relating to weak activity comprising less than 70% of the cells); in experiment [1] (MRC5, conc 1 μm) it was 2 (score 2 relating to strong activity comprising more than 70% of the cells); in experiment [1] (PBLs, conc 0.01 μm), 0; in experiment [1] (PBLs, conc 0.1 μm) it was 0; in experiment [1] (PBLs, conc 1 μm), 0.

As to `N#CCCNc1nonc1-c1nc2ccccc2n1CC(=O)c1ccc([N+](=O)[O-])cc1` [Example 57], the IC50 with Jurkat lay within 10 to 100 nM; in the experiment with Jily it was 10 to 100 nM; in the experiment with HT1080 it was 100 to 1000 nM; in the experiment on HeLa, 100 to 1000 nM; in the experiment with MRC5, 100 to 1000 nM. For the same molecule, the “Hoechst 33342 nuclear staining score” value in experiment [1] (H460, conc 0.01 μm) is 0; in experiment [1] (H460, conc 0.1 μm), 0; in experiment [1] (H460, conc 1 μm), 0; in experiment [1] (HeLa, conc 0.01 μm), 0; in experiment [1] (HeLa, conc 0.1 μm) it was 0; in experiment [1] (HeLa, conc 1 μm), 2 (score 2 relating to strong activity comprising more than 70% of the cells). Further, the “Hoechst 33342 nuclear staining score” value is 0 in experiment [1] (Jily, conc 0.01 μm); 0 in experiment [1] (Jily, conc 0.1 μm); 2 (score 2 relating to strong activity comprising more than 70% of the cells) in experiment [1] (Jily, conc 1 μm); 0 in experiment [1] (Jurkat, conc 0.01 μm); 0 in experiment [1] (Jurkat, conc 0.1 μm); 2 (score 2 relating to strong activity comprising more than 70% of the cells) in experiment [1] (Jurkat, conc 1 μm). In addition, the “Hoechst 33342 nuclear staining score” value is given as 0 in experiment [1] (MRC5, conc 0.01 μm); 0 in experiment [1] (MRC5, conc 0.1 μm); 2 (score 2 relating to strong activity comprising more than 70% of the cells) in experiment [1] (MRC5, conc 1 μm); 0 in experiment [1] (PBLs, conc 0.01 μm); 0 in experiment [1] (PBLs, conc 0.1 μm); 0 in experiment [1] (PBLs, conc 1 μm).

For the molecule `Cc1cc2nc(-c3nonc3N)n(CC(=O)c3ccccc3)c2cc1C` [Example 108], the IC50 in the experiment on Jurkat, in the experiment on Jily, with HT1080, with HeLa and in the experiment with MRC5 was 100 to 1000 nM in each case. Moreover, the “Hoechst 33342 nuclear staining score” value in experiment [1] (H460, conc 0.01 μm) is reported as 0; in experiment [1] (H460, conc 0.1 μm) it was 0; in experiment [1] (H460, conc 1 μm), 1 (1 relating to weak activity comprising less than 70% of the cells); in experiment [1] (HeLa, conc 0.01 μm), 0; in experiment [1] (HeLa, conc 0.1 μm) it was 0; in experiment [1] (HeLa, conc 1 μm) it was 0. The “Hoechst 33342 nuclear staining score” value is given as 0 in experiment [1] (Jily, conc 0.01 μm); 0 in experiment [1] (Jily, conc 0.1 μm); 2 (score 2 relating to strong activity comprising more than 70% of the cells) in experiment [1] (Jily, conc 1 μm); 0 in experiment [1] (Jurkat, conc 0.01 μm); 0 in experiment [1] (Jurkat, conc 0.1 μm); 2 (score 2 relating to strong activity comprising more than 70% of the cells) in experiment [1] (Jurkat, conc 1 μm). Further, the “Hoechst 33342 nuclear staining score” value stood at 0 in experiment [1] (MRC5, conc 0.01 μm); 0 in experiment [1] (MRC5, conc 0.1 μm); 0 in experiment [1] (MRC5, conc 1 μm); 0 in experiment [1] (PBLs, conc 0.01 μm); 0 in experiment [1] (PBLs, conc 0.1 μm); 0 in experiment [1] (PBLs, conc 1 μm).
